Assays:
[1] = molecular target: c-AMP phosphodiesterase (erythrocytes); assay: Inhibition of Cyclic AMP Phosphodiesterase; assay type: biochemical; settings: erythrocyte phosphodiesterase extract
Description: The procedure used was that described by Arch, J. R. S. and Newsholme, E. A. in Biochem. J. 158, 603, (1976):
Erythrocytes were obtained from Na-citrate (16 mM; 0.1 ml/ml blood) anticoagulated blood by repeated centrifugation with removal of the buff coat and washing with an isotonic buffer (composition in mM: NaCl 13.7, KCl 4, CaCl2.2 H2 O 1.8, Na2 HPO4.12 H2 O 0.8, NaH2 PO4 0.2, MgSO4.7 H2 O 0.7, Hepes 3.4; pH 7.4).
The phosphodiesterase was extracted by mixing the erythrocytes with 4 volumes of 7 mM phosphate buffer, pH7.4, followed by sonification (3×10 sec; 100 W) and then centrifuging for 30 min at 4200×g.
All supernatants were diluted in the extraction medium and assayed for phosphodiesterase activity within 6 hours of preparation, using the radiochemical procedure described in the above mentioned reference.

[2] = system: PDE IV (Ro 20-1724-inhibited); settings: human monocyte; cited from earlier work
[3] = system: PDE Ib (Ca^2 +/calmodulin-stimulated); settings: porcine aorta; cited from earlier work
[4] = system: PDE Ic (Ca^2 +/calmodulin-stimulated); settings: guinea-pig heart; cited from earlier work
PDE III (cGMP-inhibited) = settings: guinea-pig heart; cited from earlier work

## COc1ccc(C2=CC(=O)CC2)cc1OC [Example 1, 1-(3,4-Dimethoxyphenyl)-cyclopent-1,2-ene-3-one]
[1]
  Ki: 10900 nM

## COc1ccc(C2=CC(=O)CC2)cc1OC1CCCC1 [Example 2, 1-(3-(Cyclopentyloxy-4-methoxy)-phenyl)-cyclopent-1,2-ene-3-one]
[1]
  Ki: 1100 nM

## COc1ccc(C2=CC(=O)CCC2)cc1OC1CCCC1 [Example 3]
[1]
  Ki: 700 nM

## COc1ccc(C2=CC(=O)CCC2)cc1OC [Example 4, 1-(3,4-Dimethoxyphenyl)-cyclohex-1,2-ene-3-one]
[1]
  Ki: 3000 nM

## COc1ccc(C2CCCCC2)cc1OC1CCCC1 [Example 5, 1-Methoxy-2-cyclopentyloxy-4-cyclohexyl-benzene]
[1]
  Ki: 2100 nM

## COc1ccc(C2CCCCC2)cc1OC [Example 6, 1,2-Dimethoxy-4-cyclohexyl-benzene]
[1]
  Ki: 14100 nM

## Nc1nc2c(ncn2[C@@H]2O[C@@H]3COP(=O)(O)O[C@H]3[C@H]2O)c(=O)[nH]1 [cGMP]
[2]
  Km: 38 µM
[3]
  Km: 5 µM
[4]
  Km: 2 µM
PDE III (cGMP-inhibited)
  Km: 8 µM

— US5362915A, “Phenyl-substituted cycloalkenyl compounds useful as PDE IV inhibitors” (SmithKline Beecham Pharma GmbH, priority 1990, dated 1994)
